Source: PMC12013366, “In vitro evaluation of the immunogenic potential of gramicidin S and its photocontrolled analogues” (RSC Medicinal Chemistry, 2025)
Non-standard residues stand in square brackets, D forms with d. Residues, ends and D or L forms follow the SMILES beside them. Orn = NCCC[C@H](N)C(=O)O

Experiments:
[1] = system: HMGB1 released by HepG2 cells; assay: HMGB1 release, bioluminescence immunoassay (Lumit HMGB1) in the supernatant; format: cell-based, human; details: 64 μM, n=3
Protocol: HMGB1 was quantified (using a calibration curve) by a bioluminescence assay in the supernatant.
For this, 25 000 cells per well of HepG2 were seeded in 200 μL of complete DMEM in a 96-well black-wall transparent-bottom plate (655090, Greiner). After 24 h, the medium was aspired, and 100 μL of DPBS was added for rinsing and then aspired. Then, 100 μL of Leibovitz L-15 medium that contained 10% FBS was added. After that, 2× concentrated solutions of tested compounds (64 and 8 μM, triplicates for each time point) were prepared in the same Leibovitz L-15 medium in an intermediate plate and dispensed in a volume of 100 μL to the cell-containing plate. The calibration curve was constructed using a HMGB1 stock solution (1000–0.24 ng mL^−1, 4-fold dilution, 7 points, n = 2) from Lumit HMGB1 (Human/Mouse) immunoassay kit (W6110, Promega) and dispensed in a 96-well white-wall transparent-bottom working plate (353377, Falcon). After 30 min, 3 h and 24 h, aliquots from the intermediate plate (tested compounds) were transferred to the working plate. […] The plate was shaken for 1 min and incubated for 1 h at room temperature. […] The luminescence signal was collected throughout the visible range (360–700 nm). The data were analyzed using GraphPad Prism 10.

[2] = Cytotoxicity, three-dimensional (spheroid) assay; format: cell-based; details: human, HEK-293 spheroids, calcein-AM/PI/Hoechst 33342 confocal imaging, Table S3 (with LMB033), ± SEM, n=5, read-out: IC50, cytotoxic activity, three-dimensional (spheroid) assay
From the text: (§1) For the experiments with the three-dimensional (3D) cultures, we used a 384-well plate format and applied the protocol introduced by Sirenko et al.,[35] with a few modifications. First, we used the ultra-low adhesion plates to ensure reproducible spheroid formation. Second, we decided to co-stain the cells with calcein-AM to obtain more information on the processes occurring in spheroids upon the addition of cytolytic peptides. Calcein-AM stains metabolically active cells and helps to identify the fraction of necrotic cells that is essential for the accurate determination of the IC50 values (Fig. 3). Three time points of incubation of spheroids with the peptides (10 min, 24 h and 72 h) were chosen for the experiments. The IC50 values and the closed/open isomer activity ratios (Table 2) were calculated, as in the monolayer cell culture experiments.
(§2) Essential experimental details have been previously published by us.[79]
(§3) The cells were maintained identically to a 2D cell culture protocol. After counting, the cells were seeded in 50 μL of medium in an ultralow attachment U-bottom black-wall 384-well plate (3830, Corning). The seeding density was chosen to obtain spheroids after 48 h of incubation that are compact enough to fit into 20× objective field of view (<800–1000 μm in diameter) after incubation with compounds. We seeded 2000 cells per well for 4T1 and 1000 cells per well for HEK-293, HeLa, HepG2, LLC and MDA-MB-231. After seeding, the plate was centrifuged at 40 g for 30 s and additionally shaken at 250 rpm for 1 min to shake all the cells off the walls of a well. After 48 h, the compounds were dispensed in 20 μL of medium (500, 100, 50, 5 and 1 μM for closed peptide photoforms; 100, 50, 10, 1 and 0.5 μM for open photoforms and GS). At 10 min, 24 h and 72 h post addition of compounds, the staining solution consisting of 112.5 μM of Hoechst 33342, 4.5 μM of calcein-AM (C1430, Thermo Fisher), 13.5 μM of propidium iodide and 10% of FBS in DPBS was added in 20 μL for 2 h. The fluorescent imaging was conducted in the confocal mode with a 20× objective lens and z-stack of 12–15 images with a 10 μm step. The collected data were processed using INCarta 1.13 and analyzed using GraphPad Prism 10.

HeLa spheroids = assay: Cytotoxicity, three-dimensional (spheroid) assay; format: cell-based; details: human
From the text: as §1, §2, §3

[3] = system: calreticulin (CALR) on MDA-MB-231 cells; assay: CALR exposure on the cell surface, fluorescence microscopy; format: cell-based, human; details: MDA-MB-231 monolayer; 8 and 16 μM; 24 h; Alexa Fluor 647 anti-CALR antibody, normalized to non-treated cells; n=2
Protocol: (§4) We performed fluorescence microscopy using an Alexa Fluor 647 anti-CALR antibody for quantifying the CALR exposure on the surface of cells. Confluent monolayer 4T1, HeLa, HepG2 and MDA-MB-231 cell cultures were incubated with GS and GS-derived peptides for 24 h followed by fixation, staining with the antibody and microscopic observation. Using the images, we calculated the total levels of the fluorescence signal per cell in each sample. […] To examine the time dependence of the CALR exposure, cytofluorimetric experiments were conducted on the MDA-MB-231 cell line (Fig. 9) using an Alexa Fluor 647 anti-CALR antibody. In this experiment, 30 min, 3 h, 6 h and 24 h were the time points for monitoring the fraction of cells expressing CALR on their surface.
(§5) The cells were seeded (10 000 cells per well for 4T1; 20 000 cells per well for HeLa and MDA-MB-231; 30 000 cells per well for HepG2) in 200 μL of appropriate medium in a 96-well black-wall transparent-bottom plate (6055302, Revvity). After 24 h incubation, the medium was aspired and 100 μL of fresh medium was added. The compounds (64, 32, 16 and 8 μM for closed photoforms; 32, 16, 8 and 4 μM for open photoforms and GS) along with the negative (1% DMSO) control were prepared in DMEM and dispensed in 100 μL per well for 24 h. Then 50 μL of 20% paraformaldehyde (28908, Thermo Fisher) was added for 15 min for fixation. […]

[4] = system: calreticulin (CALR) on HepG2 cells; assay: as above; format: cell-based, human; details: HepG2 monolayer; 32 μM; 24 h; Alexa Fluor 647 anti-CALR antibody, normalized to non-treated cells; n=2
Protocol: as §4, §5

Compound: CC(C)C[C@@H]1NC(=O)[C@H](CCCN)NC(=O)[C@H](C(C)C)NC(=O)[C@@H]2CCCN2C(=O)[C@@H](Cc2ccccc2)NC(=O)[C@H](CC(C)C)NC(=O)[C@H](CCCN)NC(=O)[C@H](C(C)C)NC(=O)[C@@H]2CCCN2C(=O)[C@@H](Cc2ccccc2)NC1=O [Gramicidin S, gramicidin S] (cyclo(V[Orn]L[dF]PV[Orn]L[dF]P))
- HMGB1 detected in the supernatant ([1]; 30 min post-treatment, interpolated from calibration curve): 50 ng/mL
- HMGB1 detected in the supernatant ([1]; at 3 h, constant up to 24 h): 10 ng/mL
- IC50 at 10 min ([2]; 10 mins incubation): 14.3 ± 11.6 µM
- IC50 at 24 h ([2]; 24 hrs incubation): 12.9 ± 1.1 µM
- IC50 at 72 h ([2]; 72 hrs incubation): 9 ± 1.1 µM
- IC50 (HeLa spheroids; 10 min): 2.9 ± 1.5 µM
- IC50 (HeLa spheroids; 24 h): 2.9 ± 1.6 µM
- increase of CALR exposure [3]: 3 fold
- enhancement in CALR exposure [4]: 4–7 fold
